Experimental data as given in patent publication US20260042734A1, “HETEROCYCLIC RING-SUBSTITUTED AROMATIC COMPOUND, PREPARATION METHOD THEREFOR, AND USE THEREOF” (SHANGHAI HENLIUS BIOTECH, INC., priority 2023, published 2026).

Molecular target: human Kv1.3 (hKv1.3) channels (Homo sapiens (Human), UniProt P22001)
Test: Electrophysiological (whole-cell patch clamp) determination of inhibitory activity on Kv1.3 channels
Assay type: cell-based
Conditions: HEK293T cells expressing hKv1.3; for inhibition at 0.01 µM: HEK-293T, compound concentration 10 nM, peak current inhibition, read-out: 10 nM inhibition rate (Kv1.3); for IC50: Hill fit of peak current inhibition
Procedure: Test Example 1: Determination of Inhibitory Activity of Compounds on Kv1.3 (hKv1.3) Channels
Electrophysiological Testing
Potassium currents were measured using HEK293T cells expressing human Kv1.3 (hKv1.3) channels.
Prior to the start of electrophysiological experiments, Kv1.3 cell lines should be maintained within 70% of the maximum density in the logarithmic growth phase. All reagents should be pre-warmed to 37° C. before use. • 1) Aspirate the spent medium from the 6 cm culture dish. • 2) Add 1 mL of PBS, gently rock the dish to rinse the bottom, and then remove the PBS. • 3) Add 1 mL of trypsin, and gently rock the dish to ensure the trypsin covers all the cells. • 4) Incubate at 37° C. for 2-3 minutes, and then gently pipette the cells to suspend the adherent cells. • 5) Transfer the cell suspension to a new centrifuge tube and centrifuge at 1000 rpm for 5 minutes. Adjust the cell concentration to 2×10^3 cells/mL, and then seed 300 μL of the cell suspension into each well of a 24-well plate containing cell climbing slides. Perform patch clamp experiments after the cells adhered properly.
The intracellular and extracellular solutions used were designed to mimic the cell physiological ionic composition.
Kv1.3 extracellular solution: 137 mM NaCl, 1 mM MgCl2·6H2O, 4 mM KCl, 1.8 mM CaCl2·2H2O, 10 mM D-Glucose, 10 mM HEPES, pH adjusted to 7.4 with NaOH.
Kv1.3 intracellular solution: 140 mM KCl, 10 mM EGTA, 5 mM MgCl2·6H2O, 10 mM HEPES, […], pH adjusted to 7.2 with KOH.
Test Compound Dissolution
• 1) The test compound was dissolved in DMSO to prepare a 30 mM stock solution. • 2) The stock solution of the test compound was serially diluted with DMSO to obtain secondary stock solutions at concentrations of 300 μM, 100 μM, 30 μM, 10 μM, and 3 μM. • 3) 10 μL of each secondary stock solution was diluted into 10 mL of extracellular solution to achieve final concentrations of 300 nM, 100 nM, 30 nM, 10 nM, and 3 nM for electrophysiological testing.
Kv1.3 potassium current data were collected and stored on a computer using Patchmaster software via an EPC-10 amplifier. • 1) The cell climbing slide was removed from the cell culture dish using forceps, immersed with extracellular solution, and placed into the bath chamber on the stage of an inverted microscope. • 2) Glass micropipettes were pulled using a P-1000 micropipette puller, filled one-third of their volume with intracellular solution, and then mounted onto an electrode holder. • 3) Using a motorized micromanipulator (Scientifica-Double 1U), the recording electrode was brought into contact with the cell surface. […] The positive pressure was removed, and a negative pressure of 0.5 cm H2O was applied. It was observed that the sealing resistance increased rapidly until it reached the gigaseal. When the sealing resistance between the recording electrode and the cell membrane was >1 GΩ, negative pressure was applied to rupture the membrane to form the whole-cell recording mode. After the ruptured membrane stabilized, the membrane capacitance (Cs) and series resistance (Rs) were compensated. • 4) Stimulation procedure: the cell was voltage-clamped at −80 mV, depolarized to 40 mV for a duration of 200 ms, and then repolarized to −80 mV. Currents were recorded every 10 s. • 5) Kv1.3 potassium channel currents were recorded at room temperature prior to drug application. After the control current value reached a steady state (indicated by overlapping of the four most consecutive current traces), cumulative drug application was performed. The negative control (0.1% DMSO) was applied first, followed by […] of the drugs.
Raw Kv1.3 current peak data were extracted from PatchMaster software. The current inhibition rate was calculated as follows: Peak current inhibition rate=((1−(Peak current compound)/(Peak current vehicle))). […]

Sequence of human Kv1.3 (hKv1.3) channels (P22001 whole entry): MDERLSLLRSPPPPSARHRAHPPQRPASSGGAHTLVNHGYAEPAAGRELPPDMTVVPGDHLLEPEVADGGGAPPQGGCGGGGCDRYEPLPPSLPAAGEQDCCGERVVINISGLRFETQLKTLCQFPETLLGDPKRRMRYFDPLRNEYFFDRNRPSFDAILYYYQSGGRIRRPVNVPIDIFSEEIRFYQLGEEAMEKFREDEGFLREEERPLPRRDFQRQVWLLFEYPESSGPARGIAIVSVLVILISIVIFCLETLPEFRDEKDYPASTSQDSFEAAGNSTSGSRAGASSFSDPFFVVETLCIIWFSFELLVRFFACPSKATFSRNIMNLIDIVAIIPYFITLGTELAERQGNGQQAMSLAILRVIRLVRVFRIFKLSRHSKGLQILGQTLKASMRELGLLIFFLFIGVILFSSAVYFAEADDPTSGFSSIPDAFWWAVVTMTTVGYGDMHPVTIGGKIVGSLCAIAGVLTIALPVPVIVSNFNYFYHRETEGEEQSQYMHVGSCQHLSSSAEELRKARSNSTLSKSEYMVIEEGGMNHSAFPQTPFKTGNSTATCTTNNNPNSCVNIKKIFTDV

COc1ccc(N2CC(c3c(O)ccc(Cl)c3Cl)CC2=S)cn1 (racemic) [Compound 165, rac-4-(2,3-dichloro-6-hydroxyphenyl)-1-(6-methoxypyridin-3-yl)pyrrolidine-2-thione]
inhibition at 0.01 µM: 0 to 5%

COc1cc(N2CC(c3c(O)ccc(Cl)c3Cl)CC2=S)ccn1 (racemic) [Compound 166, rac-4-(2,3-dichloro-6-hydroxyphenyl)-1-(2-methoxypyridin-4-yl)pyrrolidine-2-thione]
inhibition at 0.01 µM: 0 to 5%

Cc1cc(N2CC(c3c(O)ccc(Cl)c3Cl)CC2=S)ccn1 (racemic) [Compound 167, rac-4-(2,3-dichloro-6-hydroxyphenyl)-1-(2-methylpyridin-4-yl)pyrrolidine-2-thione]
inhibition at 0.01 µM: 0 to 5%

O=C1N(CCCO)CC(c2c(O)ccc(Cl)c2Cl)C1(F)F (racemic) [Compound 168, rac-4-(2,3-dichloro-6-hydroxyphenyl)-3,3-difluoro-1-(3-hydroxypropyl)pyrrolidin-2-one]
inhibition at 0.01 µM: < 0%

O=C1N(CCCO)CC(c2c(O)ccc(Cl)c2Cl)C12CC2 (racemic) [Compound 169, rac-7-(2,3-dichloro-6-hydroxyphenyl)-5-(3-hydroxypropyl)-5-azaspiro[2.4]heptan-4-one]
inhibition at 0.01 µM: < 0%

OCCCN1C[C@H](c2c(O)ccc(Cl)c2Cl)CC1=S [Compound 1-1, (S)-4-(2,3-Dichloro-6-hydroxyphenyl)-1-(3-hydroxypropyl)pyrrolidine-2-thione]
IC50: 0.005 to 0.01 µM

Cn1cncc1N1CC(c2c(O)ccc(Cl)c2Cl)CC1=S (stereo not shown) [Compound 42, 4-(2,3-Dichloro-6-hydroxyphenyl)-1-(1-methyl-1H-imidazol-5-yl)pyrrolidine-2-thione]
inhibition at 0.01 µM: < 0%

Cc1ncc(N2CC(c3c(O)ccc(Cl)c3Cl)CC2=S)s1 (stereo not shown) [Compound 43, 4-(2,3-Dichloro-6-hydroxyphenyl)-1-(2-methylthiazol-5-yl)pyrrolidine-2-thione]
inhibition at 0.01 µM: 0 to 5%

CS(=O)(=O)NCCCN1CC(c2c(O)ccc(Cl)c2Cl)CC1=O (stereo not shown) [Compound 76, N-(3-(4-(2,3-Dichloro-6-hydroxyphenyl)-2-oxopyrrolidin-1-yl)propyl)methanesulfonamide]
inhibition at 0.01 µM: 0 to 5%

NS(=O)(=O)CCN1CC(c2c(O)ccc(Cl)c2Cl)CC1=O (stereo not shown) [Compound 77, 2-(4-(2,3-Dichloro-6-hydroxyphenyl)-2-oxopyrrolidin-1-yl)ethane-1-sulfonamide]
inhibition at 0.01 µM: 0 to 5%

CS(=N)(=O)CCN1CC(c2c(O)ccc(Cl)c2Cl)CC1=O (stereo not shown) [Compound 78, 4-(2,3-Dichloro-6-hydroxyphenyl)-1-(2-(S-methylsulfonylimino)ethyl) pyrrolidin-2-one]
inhibition at 0.01 µM: 0 to 5%

CS(=O)(=O)CCN1CC(c2c(O)ccc(Cl)c2Cl)CC1=O (stereo not shown) [Compound 79, 4-(2,3-Dichloro-6-hydroxyphenyl)-1-(2-(methylsulfonyl)ethyl)pyrrolidin-2-one]
inhibition at 0.01 µM: < 0%

C=Cn1cc(N2CC(c3c(O)ccc(Cl)c3Cl)CC2=O)cn1 (stereo not shown) [Compound 90, 4-(2,3-Dichloro-6-hydroxyphenyl)-1-(1-vinyl-1H-pyrazol-4-yl)pyrrolidin-2-one]
inhibition at 0.01 µM: 50 to 75%

O=C1CC(c2c(O)ccc(Cl)c2Cl)CN1C1CC2(CNC2)C1 (stereo not shown) [Compound 100, 4-(2,3-Dichloro-6-hydroxyphenyl)-1-(2-azaspiro[3.3]heptan-6-yl)pyrrolidin-2-one]
inhibition at 0.01 µM: ≥ 75%

NC1CC2(C1)CC(N1CC(c3c(O)ccc(Cl)c3Cl)CC1=O)C2 (stereo not shown) [Compound 101, 1-(6-Aminospiro[3.3]heptan-2-yl)-4-(2,3-dichloro-6-hydroxyphenyl) pyrrolidin-2-one]
inhibition at 0.01 µM: 50 to 75%

CONCCCN1CC(c2c(O)ccc(Cl)c2Cl)CC1=O (stereo not shown) [Compound 104, 4-(2,3-Dichloro-6-hydroxyphenyl)-1-(3-(methoxyamino)propyl)pyrrolidin-2-one]
inhibition at 0.01 µM: 0 to 5%

CON(C)CCCN1CC(c2c(O)ccc(Cl)c2Cl)CC1=O (stereo not shown) [Compound 105, 4-(2,3-Dichloro-6-hydroxyphenyl)-1-(3-(methoxy(methyl)amino)propyl) pyrrolidin-2-one]
inhibition at 0.01 µM: < 0%

NC(=S)CCN1CC(c2c(O)ccc(Cl)c2Cl)CC1=O (stereo not shown) [Compound 113, 3-(4-(2,3-Dichloro-6-hydroxyphenyl)-2-oxopyrrolidin-1-yl)propanethioamide]
inhibition at 0.01 µM: < 0%

N=C(N)CCN1CC(c2c(O)ccc(Cl)c2Cl)CC1=O (stereo not shown) [Compound 114, 3-(4-(2,3-Dichloro-6-hydroxyphenyl)-2-oxopyrrolidin-1-yl)propionimide]
inhibition at 0.01 µM: 0 to 5%

O=C(CCN1CC(c2c(O)ccc(Cl)c2Cl)CC1=O)NO (stereo not shown) [Compound 115, 3-(4-(2,3-Dichloro-6-hydroxyphenyl)-2-oxopyrrolidin-1-yl)-N-hydroxypropionamide]
inhibition at 0.01 µM: 25 to 50%

CN(O)C(=O)CCN1CC(c2c(O)ccc(Cl)c2Cl)CC1=O (stereo not shown) [Compound 116, 3-(4-(2,3-Dichloro-6-hydroxyphenyl)-2-oxopyrrolidin-1-yl)-N-hydroxy-N-methylpropionamide]
inhibition at 0.01 µM: < 0%

CONC(=O)CCN1CC(c2c(O)ccc(Cl)c2Cl)CC1=O (stereo not shown) [Compound 117, 3-(4-(2,3-Dichloro-6-hydroxyphenyl)-2-oxopyrrolidin-1-yl)-N-methoxypropionamide]
inhibition at 0.01 µM: 0 to 5%

O=C1CC(c2c(O)ccc(Cl)c2Cl)CN1CCNO (stereo not shown) [Compound 118, 4-(2,3-Dichloro-6-hydroxyphenyl)-1-(2-(hydroxyamino)ethyl)pyrrolidin-2-one]
inhibition at 0.01 µM: 25 to 50%

NOCCN1CC(c2c(O)ccc(Cl)c2Cl)CC1=O (stereo not shown) [Compound 119, 1-(2-(Aminooxy)ethyl)-4-(2,3-dichloro-6-hydroxyphenyl)pyrrolidin-2-one]
inhibition at 0.01 µM: 0 to 5%

NOCCCN1CC(c2c(O)ccc(Cl)c2Cl)CC1=O (stereo not shown) [Compound 120, 1-(3-(Aminooxy)propyl)-4-(2,3-dichloro-6-hydroxyphenyl)pyrrolidin-2-one]
inhibition at 0.01 µM: < 0%

OCC(F)(F)CN1C[C@H](c2c(O)ccc(Cl)c2Cl)CC1=S [Compound 121-1, (S)-4-(2,3-Dichloro-6-hydroxyphenyl)-1-(2,2-difluoro-3-hydroxypropyl)pyrrolidine-2-thione]
IC50: 0.01 to 0.03 µM

Oc1ccc(Cl)c(Cl)c1[C@@H]1CC(=S)N([C@H]2C[C@H](O)C2)C1 [Compound 124-1, (S)-4-(2,3-Dichloro-6-hydroxyphenyl)-1-((1r,3r)-3-hydroxycyclobutyl)pyrrolidine-2-thione]
IC50: 0.005 to 0.01 µM

Oc1ccc(Cl)c(Cl)c1[C@@H]1CC(=S)N(C[C@H]2C[C@H](O)C2)C1 [Compound 129-1, (S)-4-(2,3-Dichloro-6-hydroxyphenyl)-1-(((1r,3r)-3-hydroxycyclobutyl)methyl)pyrrolidine-2-thione]
IC50: ≤ 0.005 µM

OCCCCN1C[C@H](c2c(O)ccc(Cl)c2Cl)CC1=S [Compound 130-1, (S)-4-(2,3-Dichloro-6-hydroxyphenyl)-1-(4-hydroxybutyl)pyrrolidine-2-thione]
IC50: ≤ 0.005 µM

Oc1ccc(Cl)c(Cl)c1[C@@H]1CC(=S)N(c2cnn3c2CCC3)C1 [Compound 159-1, (S)-4-(2,3-Dichloro-6-hydroxyphenyl)-1-(5,6-dihydro-4H-pyrrolo[1,2-b]pyrazol-3-yl)pyrrolidine-2-thione]
IC50: 0.005 to 0.01 µM

O=C1C[C@@H](c2c(O)ccc(Cl)c2Cl)CN1CCCO [Compound W1, reference compound]
IC50: 0.01 to 0.03 µM | inhibition at 0.01 µM: 25 to 50%

NCCCN1C[C@H](c2c(O)ccc(Cl)c2Cl)CC1=O [Compound W2, reference compound]
IC50: 0.01 to 0.03 µM

(S)-4-(2,3-Dichloro-6-hydroxyphenyl)-1-(1- methyl-1H-pyrazol-4-yl)pyrrolidine-2- thione [Compound 40-1]
IC50: ≤ 0.005 µM
